In PMC7101335, “Aryl-alkyl-lysines: Novel agents for treatment of C. difficile infection” (Scientific Reports, 2020):
≈ marks a conversion by molar mass, not a printed value. Where two headings read alike, the source gives them in different places.

Assays:
[1] = tested on: Clostridium difficile; experiment: Broth microdilution MIC against Clostridium difficile strains; assay type: cell-based; conditions: Clostridioides difficile
Protocol: The broth microdilution assay was utilized following the Clinical and Laboratory Standards Institute (CLSI) guidelines with slight modifications. Briefly, C. difficile strains were grown on anaerobic blood agar plates (Becton Dickinson, BD) and suspended in brain heart infusion supplemented broth (Brain heart infusion medium, BD, supplemented with yeast extract, L-cysteine, Vitamin K1 and Hemin, Sigma) to achieve a bacterial concentration of ~10^5 CFU/ml. The bacterial suspension was seeded in 96-well plates containing drugs/compounds, in duplicate, at the required concentration. Plates were then incubated at 37 °C anaerobically for 48 hours. MICs reported are the lowest concentration of each agent that inhibited the visual growth of bacteria.

[2] = tested on: E. faecalis; experiment: Broth microdilution MIC against E. faecalis strains; assay type: cell-based; conditions: Enterococcus faecalis, read-out: Minimum inhibitory concentration
[3] = tested on: E. faecium; experiment: Broth microdilution MIC against E. faecium strains; assay type: cell-based; conditions: Enterococcus faecium, read-out: Minimum inhibitory concentration
[4] = tested on: human ileocecal colorectal adenocarcinoma cell line (HRT-18); experiment: Cytotoxicity, MTS assay, HRT-18 cells; assay type: cell-based; conditions: 32 µg mL^−1, 2 hours
Protocol: Briefly, ~2 × 10^4 cells suspended in 100 µL of RPMI-1640 supplemented with 10% horse serum were seeded in a 96-well plate and incubated at 37 °C with 5% CO2. The cells were cultured for 24 hours until reaching ~90% confluency. The cells were further incubated with the aforementioned concentrations of the compounds for 2 hours. Afterwards, culture media were discarded and the cells in each well were washed with PBS and 100 µL of cell culture media were added prior to addition of the assay reagent MTS 3-(4,5-dimethylthiazol-2-yl)-5-(3-carboxymethoxyphenyl)-2-(4-sulfophenyl)-2H-tetrazolium) (Promega). The plates were incubated for 4 hours at 37 °C in a humidified 5% CO2 atmosphere. The absorbance was recorded at 490 nm and the corrected absorbance readings (actual absorbance readings for each treatment subtracted from background absorbance) were taken using a kinetic ELISA microplate reader (SpectraMax i3x, Molecular Devices, Sunnyvale, CA, USA). The quantity of viable cells after treatment with each compound was expressed as a percentage of the control, DMSO. Asterisk (*) denotes a significant difference from the DMSO-treated cells using 2-way analysis of variance (ANOVA) followed by Dunnett’s pairwise comparison.

[5] = tested on: vancomycin-resistant and vancomycin-susceptible strains of Enterococcus; experiment: Broth microdilution MIC against Enterococcus strains (E. faecalis and E. faecium, summary in text); assay type: cell-based; conditions: all E. faecalis and E. faecium strains tested, vancomycin-resistant and -sensitive
[6] = Caco-2 bidirectional permeability assay; assay type: in vitro ADME, human; conditions: human, Caco-2; for efflux ratio at 2 h: Re = (Papp B→A)/(Papp A→B); for Papp A→B at 2 h: apical (pH 6.5) to basolateral (pH 7.4); for Papp A→B at 2 h / Papp B→A at 2 h: two hours; for Papp B→A at 2 h: basolateral to apical
Protocol: The Caco-2 bidirectional permeability assay was conducted as described in previous reports[29],[30],[41],[42]. The Caco-2 cell line is similar to human enterocytes and expresses P-glycoprotein and other relevant metabolic enzymes that affect absorption of orally-administered xenobiotics across the intestinal mucosa[34],[43],[44]. Caco-2 cells were grown in tissue culture flasks, trypsinized (by rinsing cells with phosphate-buffered saline and then treating with trypsin-EDTA for 5–10 minutes at 37 °C with 5% CO2 until cells detached), suspended in Dulbecco’s Modified Eagle Medium with 10% fetal bovine serum, 1% nonessential amino acids and penicillin-streptomycin, and then seeded onto wells of a Millipore 96-well Caco-2 plate. Cells were cultured at 37 °C with 5% CO2 until confluent (approximately three weeks) and media was changed at relevant time points. For Apical to Basolateral (A → B) permeability, the test article was added to the apical (A) compartment and the amount of permeation (Papp, as calculated below) to the basolateral (B) compartment was determined; for Basolateral to Apical (B → A) permeability, the test article was added to the B compartment and the amount of permeation to the A compartment was determined. […] Caco-2 cells were incubated with these buffers for two hours, and the receiver side buffer was removed for analysis by LC/MS/MS. To verify the tight junctions and integrity of Caco-2 cell monolayers, aliquots of the cell buffers were analyzed by fluorescence (Lucifer yellow transport ≤ 2%). Any deviations from control values are reported. Data are expressed as permeability (Papp) = (dQ/dt)/(C0A) where dQ/dt is the rate of permeation, C0 is the initial concentration of test agent, and A is the area of the monolayer.

[7] = C. difficile Isolate 1 (NR-13427), read-out: Minimum inhibitory concentration
[8] = C. difficile Isolate 2 (NR-13428), read-out: Minimum inhibitory concentration
[9] = C. difficile Isolate 4 (NR-13430), read-out: Minimum inhibitory concentration
[10] = C. difficile Isolate 5 (NR-13431), read-out: Minimum inhibitory concentration
[11] = C. difficile Isolate 6 (NR-13432), read-out: Minimum inhibitory concentration
[12] = C. difficile Isolate 9 (NR-13435), read-out: Minimum inhibitory concentration
[13] = C. difficile Isolate 10 (NR-13436), read-out: Minimum inhibitory concentration
[14] = C. difficile P2 (NR-32883), read-out: Minimum inhibitory concentration
[15] = C. difficile P4 (NR-32889), read-out: Minimum inhibitory concentration
[16] = C. difficile P8 (NR-32888), read-out: Minimum inhibitory concentration
[17] = C. difficile P13 (NR-32891), read-out: Minimum inhibitory concentration
[18] = C. difficile P15 (NR-32892), read-out: Minimum inhibitory concentration
[19] = C. difficile P20 (NR-32896), read-out: Minimum inhibitory concentration
[20] = C. difficile P21 (NR-32897), read-out: Minimum inhibitory concentration
[21] = C. difficile P29 (NR-32903), read-out: Minimum inhibitory concentration
[22] = C. difficile strains P8, P13 and Isolate 10
[23] = across all tested strains of C. difficile
[24] = E. faecalis SF28073 (vancomycin-resistant)
[25] = E. faecium E417 (vancomycin-resistant)

Compound | MIC [1, 7] | MIC [1, 8] | MIC [1, 9] | MIC [1, 10] | MIC [1, 11] | MIC [1, 12] | MIC [1, 13] | MIC [1, 14] | MIC [1, 15] | MIC [1, 16] | MIC [1, 17] | MIC [1, 18] | MIC [1, 19] | MIC [1, 20] | MIC [1, 21] | MIC [1, 22] | MIC [1, 23] | MIC ([2]; E. faecalis B3196) | MIC ([2]; E. faecalis B3286) | MIC ([2]; E. faecalis B3336) | other results
Cc1ncc([N+](=O)[O-])n1CCO [Metronidazole, reference compound] | 0.25 µg/mL (≈ 1.46 µM) | 0.0625 µg/mL (≈ 0.365 µM) | 0.5 µg/mL (≈ 2.92 µM) | 0.25 µg/mL (≈ 1.46 µM) | 0.125 µg/mL (≈ 0.73 µM) | 0.0625 µg/mL (≈ 0.365 µM) | 0.125 µg/mL (≈ 0.73 µM) | 0.0625 µg/mL (≈ 0.365 µM) | 0.125 µg/mL (≈ 0.73 µM) | 0.125 µg/mL (≈ 0.73 µM) | 0.25 µg/mL (≈ 1.46 µM) | 0.0625 µg/mL (≈ 0.365 µM) | 0.25 µg/mL (≈ 1.46 µM) | 0.125 µg/mL (≈ 0.73 µM) | 0.0625 µg/mL (≈ 0.365 µM) | < 0.25 µg/mL |  |  |  |  | 
CCCCCCN(Cc1cccc2ccccc12)C(=O)[C@@H](N)CCCCN [NCK-6] | 64 µg/mL (≈ 173 µM) | 64 µg/mL (≈ 173 µM) | 64 µg/mL (≈ 173 µM) | 32 µg/mL (≈ 86.6 µM) | 64 µg/mL (≈ 173 µM) | 32 µg/mL (≈ 86.6 µM) | 64 µg/mL (≈ 173 µM) | 64 µg/mL (≈ 173 µM) | 64 µg/mL (≈ 173 µM) | 64 µg/mL (≈ 173 µM) | 64 µg/mL (≈ 173 µM) | 64 µg/mL (≈ 173 µM) | 64 µg/mL (≈ 173 µM) | 32 µg/mL (≈ 86.6 µM) | 32 µg/mL (≈ 86.6 µM) |  | 32 µg/mL (≈ 86.6 µM) | 128 µg/mL (≈ 346 µM) | 128 µg/mL (≈ 346 µM) | 128 µg/mL (≈ 346 µM) | MIC ([2]; E. faecalis SF24397): 128 µg/mL (≈ 346 µM); MIC [2, 24]: 128 µg/mL (≈ 346 µM); MIC [3, 25]: 64 µg/mL (≈ 173 µM); MIC ([3]; E. faecium E1071): 128 µg/mL (≈ 346 µM); MIC ([3]; E. faecium UAA714): 128 µg/mL (≈ 346 µM); toxicity to HRT-18 cells [4]: survived; MIC [5]: 64 to 128 µg/mL (≈ 173 to 346 µM)
CNC(=C[N+](=O)[O-])NCCSCc1ccc(CN(C)C)o1 [Ranitidine] |  |  |  |  |  |  |  |  |  |  |  |  |  |  |  |  |  |  |  |  | efflux ratio at 2 h [6]: 5.18; Papp A→B at 2 h [6]: 0.186 ×10⁻⁶ cm/s; Papp B→A at 2 h [6]: 0.942 ×10⁻⁶ cm/s
CCCCCCCCCCCCN(Cc1cccc2ccccc12)C(=O)[C@@H](N)CCCCN [NCK-12] | 4 µg/mL (≈ 8.82 µM) | 2 µg/mL (≈ 4.41 µM) | 2 µg/mL (≈ 4.41 µM) | 1 µg/mL (≈ 2.2 µM) | 2 µg/mL (≈ 4.41 µM) | 2 µg/mL (≈ 4.41 µM) | 2 µg/mL (≈ 4.41 µM) | 1 µg/mL (≈ 2.2 µM) | 4 µg/mL (≈ 8.82 µM) | 4 µg/mL (≈ 8.82 µM) | 2 µg/mL (≈ 4.41 µM) | 2 µg/mL (≈ 4.41 µM) | 2 µg/mL (≈ 4.41 µM) | 2 µg/mL (≈ 4.41 µM) | 2 µg/mL (≈ 4.41 µM) |  | 1 to 4 µg/mL (≈ 2.2 to 8.82 µM) | 4 µg/mL (≈ 8.82 µM) | 8 µg/mL (≈ 17.6 µM) | 8 µg/mL (≈ 17.6 µM) | MIC ([2]; E. faecalis SF24397): 8 µg/mL (≈ 17.6 µM); MIC [2, 24]: 4 µg/mL (≈ 8.82 µM); MIC [3, 25]: 4 µg/mL (≈ 8.82 µM); MIC ([3]; E. faecium E1071): 8 µg/mL (≈ 17.6 µM); MIC ([3]; E. faecium UAA714): 8 µg/mL (≈ 17.6 µM); toxicity to HRT-18 cells [4]: survived; MIC [5]: 4 to 8 µg/mL (≈ 8.82 to 17.6 µM)
CC(=O)CC(c1ccccc1)c1c(O)c2ccccc2oc1=O (stereo not drawn) [Warfarin] |  |  |  |  |  |  |  |  |  |  |  |  |  |  |  |  |  |  |  |  | efflux ratio at 2 h [6]: 1.54; Papp A→B at 2 h [6]: 12.7 ×10⁻⁶ cm/s; Papp B→A at 2 h [6]: 19.6 ×10⁻⁶ cm/s
CN[C@H](CC(C)C)C(=O)N[C@H]1C(=O)N[C@@H](CC(N)=O)C(=O)N[C@H]2C(=O)N[C@H]3C(=O)N[C@H](C(=O)N[C@H](C(=O)O)c4cc(O)cc(O)c4-c4cc3ccc4O)[C@H](O)c3ccc(c(Cl)c3)Oc3cc2cc(c3O[C@@H]2O[C@H](CO)[C@@H](O)[C@H](O)[C@H]2O[C@H]2C[C@](C)(N)[C@H](O)[C@H](C)O2)Oc2ccc(cc2Cl)[C@H]1O [Vancomycin, reference compound] |  |  |  |  |  |  |  |  |  |  |  |  |  |  |  | 0.5 µg/mL (≈ 0.345 µM) |  |  |  |  | MIC ([1]; read-out: Minimum inhibitory concentration, C. difficile Isolate 1 (NR-13427)): 1 µg/mL (≈ 0.69 µM); MIC ([1]; read-out: Minimum inhibitory concentration, C. difficile Isolate 2 (NR-13428)): 1 µg/mL (≈ 0.69 µM); MIC ([1]; read-out: Minimum inhibitory concentration, C. difficile Isolate 4 (NR-13430)): 0.5 µg/mL (≈ 0.345 µM); MIC ([1]; read-out: Minimum inhibitory concentration, C. difficile Isolate 5 (NR-13431)): 0.5 µg/mL (≈ 0.345 µM); MIC ([1]; read-out: Minimum inhibitory concentration, C. difficile Isolate 6 (NR-13432)): 0.5 µg/mL (≈ 0.345 µM); MIC ([1]; read-out: Minimum inhibitory concentration, C. difficile Isolate 9 (NR-13435)): 0.5 µg/mL (≈ 0.345 µM); MIC ([1]; read-out: Minimum inhibitory concentration, C. difficile Isolate 10 (NR-13436)): 0.5 µg/mL (≈ 0.345 µM); MIC ([1]; read-out: Minimum inhibitory concentration, C. difficile P2 (NR-32883)): 0.5 µg/mL (≈ 0.345 µM); MIC ([1]; read-out: Minimum inhibitory concentration, C. difficile P4 (NR-32889)): 2 µg/mL (≈ 1.38 µM); MIC ([1]; read-out: Minimum inhibitory concentration, C. difficile P8 (NR-32888)): 0.5 µg/mL (≈ 0.345 µM); MIC ([1]; read-out: Minimum inhibitory concentration, C. difficile P13 (NR-32891)): 0.5 µg/mL (≈ 0.345 µM); MIC ([1]; read-out: Minimum inhibitory concentration, C. difficile P15 (NR-32892)): 0.5 µg/mL (≈ 0.345 µM); MIC ([1]; read-out: Minimum inhibitory concentration, C. difficile P20 (NR-32896)): 1 µg/mL (≈ 0.69 µM); MIC ([1]; read-out: Minimum inhibitory concentration, C. difficile P21 (NR-32897)): 0.5 µg/mL (≈ 0.345 µM); MIC ([1]; read-out: Minimum inhibitory concentration, C. difficile P29 (NR-32903)): 0.5 µg/mL (≈ 0.345 µM); MIC ([1]; the rest of the C. difficile strains): 0.5 to 1 µg/mL (≈ 0.345 to 0.69 µM); MIC [2]: 1 µg/mL (≈ 0.69 µM); MIC [3]: > 128 µg/mL
